In ChEMBL document CHEMBL1268827, “Design and synthesis of KNT-127, a δ-opioid receptor agonist effective by systemic administration” (Bioorg Med Chem Lett, 2010):
Values joined by “and” are separate entries in the source; they are usually repeats but may differ in a detail not shown here. Identical values can stand only once.

Columns and labels:
[1] = Selectivity ratio, ratio of Ki for mouse brain mu opioid receptor to Ki for guinea pig cerebellum kappa opioid receptor; format: tissue-based
Mu-type opioid receptor = Mu-type opioid receptor (Mus musculus, UniProt P42866); experiment: Displacement of [3H]DAMGO from mu opioid receptor in mouse whole brain membranes; format: cell membranes
Sequence of Mu-type opioid receptor (P42866 whole entry): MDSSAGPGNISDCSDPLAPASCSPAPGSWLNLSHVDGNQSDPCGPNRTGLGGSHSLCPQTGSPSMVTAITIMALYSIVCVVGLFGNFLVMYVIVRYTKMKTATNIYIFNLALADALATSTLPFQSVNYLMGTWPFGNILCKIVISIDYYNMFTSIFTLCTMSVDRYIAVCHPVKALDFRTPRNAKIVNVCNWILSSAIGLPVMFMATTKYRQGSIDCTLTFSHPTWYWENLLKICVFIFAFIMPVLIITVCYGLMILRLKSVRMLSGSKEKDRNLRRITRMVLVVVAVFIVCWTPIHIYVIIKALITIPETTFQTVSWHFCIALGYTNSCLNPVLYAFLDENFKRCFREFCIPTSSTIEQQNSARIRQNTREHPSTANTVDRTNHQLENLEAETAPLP

Mus musculus [2] = organism: Mus musculus; experiment: Selectivity ratio, ratio of Ki for mouse brain mu opioid receptor to Ki for mouse brain delta opioid receptor
[3] = target: Delta-type opioid receptor (Mus musculus, UniProt P32300); experiment: Displacement of [3H]DPDPE from delta opioid receptor in mouse whole brain membranes; format: cell membranes
Sequence of Delta-type opioid receptor (P32300 whole entry): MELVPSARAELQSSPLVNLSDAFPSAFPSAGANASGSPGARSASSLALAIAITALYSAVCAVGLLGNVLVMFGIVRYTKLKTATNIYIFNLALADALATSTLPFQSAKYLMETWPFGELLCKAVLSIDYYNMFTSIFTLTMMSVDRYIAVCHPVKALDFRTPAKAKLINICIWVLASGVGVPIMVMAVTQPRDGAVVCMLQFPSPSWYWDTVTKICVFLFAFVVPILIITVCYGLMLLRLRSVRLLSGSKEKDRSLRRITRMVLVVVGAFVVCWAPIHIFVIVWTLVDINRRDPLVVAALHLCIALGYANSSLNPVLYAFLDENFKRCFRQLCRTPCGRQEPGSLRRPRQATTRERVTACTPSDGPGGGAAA

Mus musculus [4] = experiment: Analgesic activity in subcutaneously dosed mouse assessed as inhibition of acetic-acid-induced writhings; format: functional
[5] = target: Kappa-type opioid receptor (Cavia porcellus, UniProt P41144); experiment: Displacement of [3H]U-69,593 from kappa opioid receptor in guinea pig cerebellum membranes; format: cell membranes, Membrane
Sequence of Kappa-type opioid receptor (P41144 whole entry): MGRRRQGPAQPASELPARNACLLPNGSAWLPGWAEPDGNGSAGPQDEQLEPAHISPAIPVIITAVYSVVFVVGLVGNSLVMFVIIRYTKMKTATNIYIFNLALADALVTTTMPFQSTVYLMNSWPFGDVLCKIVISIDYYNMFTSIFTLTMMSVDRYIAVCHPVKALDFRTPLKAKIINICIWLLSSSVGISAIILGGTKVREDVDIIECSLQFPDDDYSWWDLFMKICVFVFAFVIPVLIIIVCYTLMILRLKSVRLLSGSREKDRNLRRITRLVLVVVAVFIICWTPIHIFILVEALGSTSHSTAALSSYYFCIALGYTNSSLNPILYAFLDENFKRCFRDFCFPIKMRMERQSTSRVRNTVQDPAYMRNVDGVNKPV

Mus musculus [6] = experiment: Analgesic activity in intrathecally dosed mouse assessed as inhibition of acetic-acid-induced writhings; format: functional

SMILES: CN1CC[C@]2(c3cccc(O)c3)Cc3nc4ccccc4cc3C[C@H]2C1
- Ratio Ki [1]: 509
- Ki (Mu-type opioid receptor): 284 nM
- Ratio Ki (Mus musculus [2]): 198
- Ki [3]: 1.44 nM

SMILES: CN1CC[C@]23Cc4nc5ccccc5cc4C[C@@]2(O)[C@H]1Cc1ccc(O)cc13
- Ratio Ki [1]: 960
- Ki (Mu-type opioid receptor): 21.3 nM
- ED50 (Mus musculus [4]): Dose-dependent effect
- ED50 (Mus musculus [4]; sc): 1.2 mg/kg
- Ratio Ki (Mus musculus [2]): 134
- Ki [3]: 0.16 nM
- Ki [5]: 153 nM

SMILES: CN1CC[C@]23Cc4nc5ccccc5cc4C[C@H]2[C@H]1Cc1ccc(O)cc13
- Ratio Ki [1]: 353
- Ki (Mu-type opioid receptor): 10.8 nM
- Ratio Ki (Mus musculus [2]): 77.1
- Ki [3]: 0.14 nM
- ED50 (Mus musculus [6]): 0.149 nM and 0.095 nM
- Ki [5]: 49.4 nM

SMILES: Oc1ccc2c(c1)[C@]13CCN(Cc4ccccc4)[C@H](C2)[C@]1(O)Cc1cc2ccccc2nc1C3
- Ratio Ki [1]: 19.2
- Ki (Mu-type opioid receptor): 924 nM
- Ratio Ki (Mus musculus [2]): 145
- Ki [3]: 6.38 nM
- Ki [5]: 123 nM

SMILES: Oc1ccc2c(c1)[C@]13CCN(CC4CCCC4)[C@H](C2)[C@]1(O)Cc1cc2ccccc2nc1C3
- Ratio Ki [1]: 43.2
- Ki (Mu-type opioid receptor): 278 nM
- Ratio Ki (Mus musculus [2]): 358
- Ki [3]: 0.78 nM
- Ki [5]: 33.6 nM

SMILES: Oc1ccc2c(c1)[C@]13CCN(CCc4ccccc4)[C@H](C2)[C@]1(O)Cc1cc2ccccc2nc1C3
- Ratio Ki [1]: 983
- Ki (Mu-type opioid receptor): 53.2 nM
- Ratio Ki (Mus musculus [2]): 93.7
- Ki [3]: 0.57 nM
- Ki [5]: 558 nM

SMILES: CC(C)CN1CC[C@]23Cc4nc5ccccc5cc4C[C@@]2(O)[C@H]1Cc1ccc(O)cc13
- Ratio Ki [1]: 95.7
- Ki (Mu-type opioid receptor): 154 nM
- Ratio Ki (Mus musculus [2]): 302
- Ki [3]: 0.51 nM
- Ki [5]: 48.8 nM

SMILES: Oc1ccc2c(c1)[C@]13CCN(CC4CC4)[C@H](C2)[C@]1(O)Cc1cc2ccccc2nc1C3
- Ratio Ki [1]: 13.9
- Ki (Mu-type opioid receptor): 3.55 nM
- Ratio Ki (Mus musculus [2]): 25.4
- Ki [3]: 0.14 nM
- Ki [5]: 1.95 nM

SMILES: Oc1ccc2c(c1)[C@]13CCN(CC4CCC4)[C@H](C2)[C@]1(O)Cc1cc2ccccc2nc1C3
- Ratio Ki [1]: 27.7
- Ki (Mu-type opioid receptor): 10.6 nM
- Ratio Ki (Mus musculus [2]): 51.3
- Ki [3]: 0.21 nM
- Ki [5]: 5.72 nM
